In patent publication US6350251B1, “Biocidal locks” (Biolink Corporation, priority 2000, dated 2002):

Key:
Candida albicans [1] = test: Inoculated DIALOCK port/catheter filled with lock solution, flush cultured on blood agar (Example 7); type: cell-based; parameters: key to organisms remaining, DIALOCK port flush: TNTC: Too numerous to count; details: inoculum 5 cfu/0.1 mL; 2% citrated taurolidine or 5000 U/mL heparin (with preservative); 37° C. for 72 hours
Experimental: (§1) Clinical blood isolates of coagulase negative staphylococcus, Candida albicans, Staphylococcus aureus, Enterococcus, and Pseudomonas aeruginosa were inoculated into trypticase soy broth and allowed to incubate at 37° C. until the cultures were visibly turbid. Serial dilutions were made to obtain a final cell density of 10 colony forming units (cfu)/0.1 mL for S. aureus, Enterococcus, and Pseudomonas aeruginosa; 5 cfu/0.1 mL for Candida; 100 cfu/0.1 mL for coagulase negative staph. and Enterobacter. From the final dilution, 0.1 mL was instilled into each distal end of a DIALOCK port tube, and the DIALOCK port was incubated at room temperature overnight. After incubation, a regular silicon catheter was placed on the distal end of both sides of each DIALOCK port. A solution of 5000 U/mL of heparin (with preservative) or 2% citrated taurolidine was instilled through the proximal end of the DIALOCK port to fill the DIALOCK port and catheter. The catheter was clamped and the DIALOCK port/catheter was incubated at 37° C. for 72 hours. Following this incubation, both catheters were removed from each DIALOCK port and each was flushed with 0.1 mL of nutrient broth.

[2] = tested on: coagulase negative staphylococcus; test: as above; type: cell-based; parameters: key to organisms remaining, DIALOCK port flush: TNTC: Too numerous to count; details: inoculum 100 cfu/0.1 mL; 2% citrated taurolidine or 5000 U/mL heparin (with preservative); 37° C. for 72 hours
Experimental: as §1

Enterobacter = test: as above; type: cell-based; parameters: key: TNTC: Too numerous to count; details: inoculum 100 cfu/0.1 mL; 2% citrated taurolidine or 5000 U/mL heparin (with preservative); 37° C. for 72 hours
Experimental: as §1

Enterococcus = test: as above; type: cell-based; parameters: key: TNTC: Too numerous to count; details: inoculum 10 cfu/0.1 mL; 2% citrated taurolidine or 5000 U/mL heparin (with preservative); 37° C. for 72 hours
Experimental: as §1

Pseudomonas aeruginosa = test: as above; type: cell-based; parameters: key: TNTC: Too numerous to count; details: inoculum 10 cfu/0.1 mL; 2% citrated taurolidine or 5000 U/mL heparin (with preservative); 37° C. for 72 hours
Experimental: as §1

Staphylococcus aureus = test: as above; type: cell-based; parameters: key: TNTC: Too numerous to count; details: inoculum 10 cfu/0.1 mL; 2% citrated taurolidine or 5000 U/mL heparin (with preservative); 37° C. for 72 hours
Experimental: as §1

S. epidermis = details: cited from earlier work
Candida albicans [3] = details: oral isolate of Candida albicans to human buccal epithelial cells; concentration dependent; cited from earlier work
E. coli [4] = details: urine isolate of E. coli to human uroepithelial cells; concentration dependent; cited from earlier work
blood = test: Clotting of pig blood in containers holding taurolidine solution with or without ACD-A (Example 1); details: pig blood filled up to 30 mL over 5, 10 or 15 mL 0.5% taurolidine in Ringer-lactate, or 5 mL taurolidine solution plus 2 mL ACD-A; inspected after 30 minutes
Experimental: A 0.5% solution of taurolidine in Ringer-lactate solution (Thomae, Biberach, Germany) was introduced into each of four polyethylene bottles having a 30 mL volume. Filling volumes were 5, 10, and 15 mL. One bottle was filled with 5 mL of the taurolidine solution and 2 mL ACD-A (Fresenius, Bad Homburg, Germany) solution. ACD-A solution is used for the conservation of whole blood and contains per liter: 22.0 grams of sodium citrate dihydrate, 7.3 grams of citric acid and 34.5 grams of glucose monohydrate.
Blood was collected at a slaughter house from a female pig directly from the slaughter wound into the containers that were then filled up to the 30 mL level. The containers were capped and gently moved to mix blood with the solution. The containers were inspected after 30 minutes. Blood in the containers containing only taurolidine was clotted, but the blood in the container containing the mixture of taurolidine and ACD-A was not clotted.

E. coli [5] = details: mice, intravenous 0.2 mL of a 20% solution in sterile 5% polyvinyl pyrrolidone; intraperitoneal E. coli; cited from earlier work
B. fragilis = details: mice, intravenous 0.2 mL of a 20% solution in sterile 5% polyvinyl pyrrolidone; intraperitoneal B. fragilis; cited from earlier work
[6] = tested on: Vancomycin-Internediate Susceptibility Staphylococcus A ureus (VISA) and Methicillin-Resistant Staphylococcus Aureus (MRSA); details: range of from pH 7.0 to pH 5.0; cited from earlier work
[7] = clinical, bacteriologic outcomes, endotoxemia, organ failure, 28-day mortality rate as end points; cited from earlier work

Compound | organisms remaining, Catheter flush (Candida albicans [1]) | organisms remaining, DIALOCK port flush (Candida albicans [1]) | organisms remaining, Catheter flush [2] | organisms remaining, DIALOCK port flush [2] | organisms remaining, Catheter flush (Enterobacter) | organisms remaining, DIALOCK port flush (Enterobacter) | organisms remaining, Catheter flush (Enterococcus) | organisms remaining, DIALOCK port flush (Enterococcus) | organisms remaining, Catheter flush (Pseudomonas aeruginosa) | organisms remaining, DIALOCK port flush (Pseudomonas aeruginosa) | organisms remaining, Catheter flush (Staphylococcus aureus) | organisms remaining, DIALOCK port flush (Staphylococcus aureus) | microbial anti-adherence activity (Candida albicans [3]) | microbial anti-adherence activity (E. coli [4]) | other results
Heparin | 20 cfu | TNTC | No growth | TNTC | TNTC | TNTC | TNTC | TNTC | TNTC | TNTC | TNTC | TNTC | – | – | inhibition of growth of S. epidermis (S. epidermis; isolate from the catheter of an infected patient): does not inhibit the growth
O=C([O-])CN(CCN(CC(=O)[O-])CC(=O)O)CC(=O)O.[Na+].[Na+] [disodium EDTA] | – | – | – | – | – | – | – | – | – | – | – | – | – | – | concentration shown to be bactericidal (S. epidermis; initial inoculum of 10^3 CFU of staphylococci per mL, in 24 hours): 20 mg/mL
povidone-iodine | – | – | – | – | – | – | – | – | – | – | – | – | significant anti-adherence activity | significant anti-adherence activity | –
CN[C@H](CC(C)C)C(=O)N[C@H]1C(=O)N[C@@H](CC(N)=O)C(=O)N[C@H]2C(=O)N[C@H]3C(=O)N[C@H](C(=O)N[C@H](C(=O)O)c4cc(O)cc(O)c4-c4cc3ccc4O)[C@H](O)c3ccc(c(Cl)c3)Oc3cc2cc(c3O[C@@H]2O[C@H](CO)[C@@H](O)[C@H](O)[C@H]2O[C@H]2C[C@](C)(N)[C@H](O)[C@H](C)O2)Oc2ccc(cc2Cl)[C@H]1O [Vancomycin] | – | – | – | – | – | – | – | – | – | – | – | – | – | – | dose found to be bactericidal (S. epidermis; initial inocula of 10^3 CFU/mL): 6.7 µg/mL
O=S1(=O)CCN(CN2CCS(=O)(=O)NC2)CN1 [taurolidine, bis-(1,1-dioxo-perhydroxy-1,2,4-thiadiazin-4-yl)methane] | No growth* | No growth | No growth | No growth | No growth | No growth | No growth | No growth | No growth** | No growth | No growth | No growth | significant anti-adherence activity | significant anti-adherence activity | state of blood in the containers (blood): clotted; mortality rate (E. coli [5]): very significantly reduce the mortality rate; mortality rate (B. fragilis): very significantly reduce the mortality rate; taurolidine activity versus pH [6]: increases with decreasing pH; therapeutic effect on the outcome of patients with sepsis syndrome [7]: no beneficial therapeutic effect
[H]/N=C(\N/C(=N/[H])NCCCCCCNC(=N)NC(=N)Nc1ccc(Cl)cc1)Nc1ccc(Cl)cc1 [chlorhexidine] | – | – | – | – | – | – | – | – | – | – | – | – | significant anti-adherence activity | significant anti-adherence activity | –
